Experimental data taken from the supplement of paper PMC11451515.

Assays:
Conditions in all cases: 48 h
NOMO1 [1] = test: cell viability relative to DMSO control; higher = less cytotoxic
In short: (§1)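 Three leukemia lines were tested: NOMO1 and SEM at 500 cells/well and P12-Ichikawa at 1000 cells/well. Each was adapted for at least four passages in each medium and seeded in 5 μl in 1536-well plates, and library compounds in DMSO were pin-dosed from 47 μM to 0.79 nM in 11 threefold steps. After 48 h at 37°C, CellTiter-Glo One luminescence was read. Viability is a percentage relative to DMSO wells on each plate, with cell-free wells as background.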

P12-Ichikawa [2] = test: as above
In short: as §1

SEM cells [3] = test: as above
In short: as §1

NOMO1 [4] = test: AUC of viability dose-response curve (% viability x log10 dose units); higher = less sensitive
In short: (§2)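 Seeding of medium-adapted leukemia cells was at 500 or 1000 cells/well in 1536-well plates, followed by 48 h at 37°C with library compounds in DMSO at 11 threefold doses from 47 μM to 0.79 nM. CellTiter-Glo One luminescence was normalised per plate to DMSO and cell-free wells and fitted as a four-parameter log-logistic function of log10 dose. Area under the curve was integrated by trapezoidal rule, with curves exceeding full viability scaled and curves failing quality control removed.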

P12-Ichikawa [5] = test: as above
In short: as §2

SEM cells [6] = test: as above
In short: as §2

NCCCC(O)(P(=O)(O)O)P(=O)(O)O.O.O.O.[Na+]
cell viability [%]
Conditions	NOMO1 [1]	P12-Ichikawa [2]	SEM cells [3]
HPLM + 10% dialyzed FBS, 0.000781 µM	–	109	141
HPLM + 10% dialyzed FBS, 0.00234 µM	–	113	106
HPLM + 10% dialyzed FBS, 0.00702 µM	–	123	118
HPLM + 10% dialyzed FBS, 0.0211 µM	–	114	120
HPLM + 10% dialyzed FBS, 0.0632 µM	–	114	122
HPLM + 10% dialyzed FBS, 0.19 µM	–	112	118
HPLM + 10% dialyzed FBS, 0.569 µM	–	102	125
HPLM + 10% dialyzed FBS, 1.71 µM	–	97.9	110
HPLM + 10% dialyzed FBS, 5.12 µM	–	68.3	71
HPLM + 10% dialyzed FBS, 15.4 µM	–	45.1	56.6
HPLM + 10% dialyzed FBS, 46.1 µM	–	19.7	15.4
RPMI 5 mM glucose + 10% FBS, 0.000781 µM	102	120	124
RPMI 5 mM glucose + 10% FBS, 0.00234 µM	–	116	125
RPMI 5 mM glucose + 10% FBS, 0.00702 µM	–	119	109
RPMI 5 mM glucose + 10% FBS, 0.0211 µM	–	119	130
RPMI 5 mM glucose + 10% FBS, 0.0632 µM	117	119	112
RPMI 5 mM glucose + 10% FBS, 0.19 µM	117	121	122
RPMI 5 mM glucose + 10% FBS, 0.569 µM	102	112	99.3
RPMI 5 mM glucose + 10% FBS, 1.71 µM	106	107	101
RPMI 5 mM glucose + 10% FBS, 5.12 µM	102	85.5	22.5
RPMI 5 mM glucose + 10% FBS, 15.4 µM	–	64.9	16.6
RPMI 5 mM glucose + 10% FBS, 46.1 µM	–	51.4	6.56
RPMI 5 mM glucose + 10% dialyzed FBS, 0.000781 µM	–	121	125
RPMI 5 mM glucose + 10% dialyzed FBS, 0.00234 µM	116	121	111
RPMI 5 mM glucose + 10% dialyzed FBS, 0.00702 µM	107	125	133
RPMI 5 mM glucose + 10% dialyzed FBS, 0.0211 µM	123	120	118
RPMI 5 mM glucose + 10% dialyzed FBS, 0.0632 µM	115	117	122
RPMI 5 mM glucose + 10% dialyzed FBS, 0.19 µM	110	120	113
RPMI 5 mM glucose + 10% dialyzed FBS, 0.569 µM	111	109	110
RPMI 5 mM glucose + 10% dialyzed FBS, 1.71 µM	113	97.3	116
RPMI 5 mM glucose + 10% dialyzed FBS, 5.12 µM	114	76.3	37.5
RPMI 5 mM glucose + 10% dialyzed FBS, 15.4 µM	87.8	46.4	27.9
RPMI 5 mM glucose + 10% dialyzed FBS, 46.1 µM	61.7	35.6	7.61

AUC of viability dose-response curve
Conditions	NOMO1 [4]	P12-Ichikawa [5]	SEM cells [6]
HPLM + 10% dialyzed FBS	416	395	402
RPMI 5 mM glucose + 10% FBS	439	421	366
RPMI 5 mM glucose + 10% dialyzed FBS	456	398	382

Cn1c(=O)c2[nH]cnc2n(C)c1=O
cell viability [%]
Conditions	NOMO1 [1]	P12-Ichikawa [2]	SEM cells [3]
HPLM + 10% dialyzed FBS, 0.000781 µM	120	104	102
HPLM + 10% dialyzed FBS, 0.00234 µM	111	113	112
HPLM + 10% dialyzed FBS, 0.00702 µM	121	116	107
HPLM + 10% dialyzed FBS, 0.0211 µM	122	114	109
HPLM + 10% dialyzed FBS, 0.0632 µM	92.5	111	108
HPLM + 10% dialyzed FBS, 0.19 µM	115	110	110
HPLM + 10% dialyzed FBS, 0.569 µM	120	116	98.6
HPLM + 10% dialyzed FBS, 1.71 µM	106	109	117
HPLM + 10% dialyzed FBS, 5.12 µM	110	114	105
HPLM + 10% dialyzed FBS, 15.4 µM	102	106	110
HPLM + 10% dialyzed FBS, 46.1 µM	84.8	104	102
RPMI 5 mM glucose + 10% FBS, 0.000781 µM	114	112	104
RPMI 5 mM glucose + 10% FBS, 0.00234 µM	103	113	107
RPMI 5 mM glucose + 10% FBS, 0.00702 µM	103	115	110
RPMI 5 mM glucose + 10% FBS, 0.0211 µM	104	117	98.1
RPMI 5 mM glucose + 10% FBS, 0.0632 µM	94	109	98.2
RPMI 5 mM glucose + 10% FBS, 0.19 µM	100	115	103
RPMI 5 mM glucose + 10% FBS, 0.569 µM	101	124	99.7
RPMI 5 mM glucose + 10% FBS, 1.71 µM	113	106	94.8
RPMI 5 mM glucose + 10% FBS, 5.12 µM	95.8	112	110
RPMI 5 mM glucose + 10% FBS, 15.4 µM	99	108	99
RPMI 5 mM glucose + 10% FBS, 46.1 µM	93.6	105	97.2
RPMI 5 mM glucose + 10% dialyzed FBS, 0.000781 µM	101	115	98.8
RPMI 5 mM glucose + 10% dialyzed FBS, 0.00234 µM	108	111	126
RPMI 5 mM glucose + 10% dialyzed FBS, 0.00702 µM	104	113	102
RPMI 5 mM glucose + 10% dialyzed FBS, 0.0211 µM	100	107	115
RPMI 5 mM glucose + 10% dialyzed FBS, 0.0632 µM	108	111	124
RPMI 5 mM glucose + 10% dialyzed FBS, 0.19 µM	96.3	116	113
RPMI 5 mM glucose + 10% dialyzed FBS, 0.569 µM	92.2	107	106
RPMI 5 mM glucose + 10% dialyzed FBS, 1.71 µM	99.7	108	114
RPMI 5 mM glucose + 10% dialyzed FBS, 5.12 µM	106	111	105
RPMI 5 mM glucose + 10% dialyzed FBS, 15.4 µM	97.5	99.7	124
RPMI 5 mM glucose + 10% dialyzed FBS, 46.1 µM	87.7	94.2	104

AUC of viability dose-response curve
Conditions	NOMO1 [4]	P12-Ichikawa [5]	SEM cells [6]
HPLM + 10% dialyzed FBS	464	473	474
RPMI 5 mM glucose + 10% FBS	454	463	454
RPMI 5 mM glucose + 10% dialyzed FBS	457	468	477

CCCC(CCC)C(=O)[O-]
cell viability [%]
Conditions	NOMO1 [1]	P12-Ichikawa [2]	SEM cells [3]
HPLM + 10% dialyzed FBS, 0.000781 µM	106	87.4	87
HPLM + 10% dialyzed FBS, 0.00234 µM	105	96.6	88.8
HPLM + 10% dialyzed FBS, 0.00702 µM	113	103	110
HPLM + 10% dialyzed FBS, 0.0211 µM	122	102	97.5
HPLM + 10% dialyzed FBS, 0.0632 µM	116	106	92.3
HPLM + 10% dialyzed FBS, 0.19 µM	120	104	91
HPLM + 10% dialyzed FBS, 0.569 µM	109	102	103
HPLM + 10% dialyzed FBS, 1.71 µM	110	103	112
HPLM + 10% dialyzed FBS, 5.12 µM	101	109	93.3
HPLM + 10% dialyzed FBS, 15.4 µM	84.9	105	100
HPLM + 10% dialyzed FBS, 46.1 µM	63.8	101	88.6
RPMI 5 mM glucose + 10% FBS, 0.000781 µM	86.1	88.6	104
RPMI 5 mM glucose + 10% FBS, 0.00234 µM	96.6	103	103
RPMI 5 mM glucose + 10% FBS, 0.00702 µM	107	105	121
RPMI 5 mM glucose + 10% FBS, 0.0211 µM	123	110	123
RPMI 5 mM glucose + 10% FBS, 0.0632 µM	106	115	115
RPMI 5 mM glucose + 10% FBS, 0.19 µM	113	119	102
RPMI 5 mM glucose + 10% FBS, 0.569 µM	107	105	125
RPMI 5 mM glucose + 10% FBS, 1.71 µM	102	108	125
RPMI 5 mM glucose + 10% FBS, 5.12 µM	111	105	115
RPMI 5 mM glucose + 10% FBS, 15.4 µM	94.4	105	116
RPMI 5 mM glucose + 10% FBS, 46.1 µM	92.1	94.8	135
RPMI 5 mM glucose + 10% dialyzed FBS, 0.000781 µM	75.5	94.2	74.3
RPMI 5 mM glucose + 10% dialyzed FBS, 0.00234 µM	108	102	105
RPMI 5 mM glucose + 10% dialyzed FBS, 0.00702 µM	105	102	95.3
RPMI 5 mM glucose + 10% dialyzed FBS, 0.0211 µM	106	114	124
RPMI 5 mM glucose + 10% dialyzed FBS, 0.0632 µM	112	112	89.7
RPMI 5 mM glucose + 10% dialyzed FBS, 0.19 µM	116	107	96.8
RPMI 5 mM glucose + 10% dialyzed FBS, 0.569 µM	114	104	107
RPMI 5 mM glucose + 10% dialyzed FBS, 1.71 µM	109	101	118
RPMI 5 mM glucose + 10% dialyzed FBS, 5.12 µM	98.6	107	107
RPMI 5 mM glucose + 10% dialyzed FBS, 15.4 µM	110	106	98.1
RPMI 5 mM glucose + 10% dialyzed FBS, 46.1 µM	101	96.5	108

AUC of viability dose-response curve
Conditions	NOMO1 [4]	P12-Ichikawa [5]	SEM cells [6]
HPLM + 10% dialyzed FBS	448	468	461
RPMI 5 mM glucose + 10% FBS	469	472	442
RPMI 5 mM glucose + 10% dialyzed FBS	453	476	468
